Reference: patent US11667602B2, “Compounds and their use” (AstraZeneca AB, priority 2020, dated 2023)
≈ marks a conversion by molar mass, not a printed value.

Legend:
Solubility (Test F) = type: physicochemical; settings: arithmetic mean if run multiple times
Method: The assay was conducted according to the Solubility Assay described in pages 164-167 of Wernevik, J. et al., “A Fully Integrated Assay Panel for Early Drug Metabolism and Pharmacokinetics Profiling”, Assay and Drug Development Technologies, 2020, 18(4), 157-179. Data are reported in Table 36 as solubility ([…]. Where the assay was run multiple times for the same compound, the arithmetic mean is reported.

[1] = Rat Hepatocyte Stability (Test E); type: in vitro ADME; settings: rat, hepatocytes, geometric mean if run multiple times
Method: Rat Hepatocyte Stability (Test E)
The assay was conducted according to the Rat Hepatocyte Stability Assay described in pages 170-174 of Wernevik, J. et al., “A Fully Integrated Assay Panel for Early Drug Metabolism and Pharmacokinetics Profiling”, Assay and Drug Development Technologies, 2020, 18(4), 157-179. Data are reported in Table 36 as mean Clint(μl/min/10^6 cells). Where the assay was run multiple times for the same compound, the geometric mean is reported.

[2] = Human Liver Microsomal Stability (Test C); type: in vitro ADME; settings: human, liver microsomes
Method: Human Liver Microsomal Stability (Test C)
The assay was conducted according to the Human Liver Microsome Stability Assay described in pages 170-174 of Wernevik, J. et al., “A Fully Integrated Assay Panel for Early Drug Metabolism and Pharmacokinetics Profiling”, Assay and Drug Development Technologies, 2020, 18(4), 157-179. Data are reported in Table 36 as CLint (μl/min/mg protein). Where the assay was run multiple times for the same compound, the arithmetic mean is reported.

[3] = Human Plasma Protein Binding (Test B); type: in vitro ADME; settings: fraction unbound (fu)
Method: Human Plasma Protein Binding (Test B)
The assay was conducted according to the Human Plasma Protein Binding Assay described in pages 167-170 of Wernevik, J. et al., “A Fully Integrated Assay Panel for Early Drug Metabolism and Pharmacokinetics Profiling”, Assay and Drug Development Technologies, 2020, 18(4), 157-179. Data are reported in Table 36 as fraction unbound (fu) (% free). Where the assay was run multiple times for the same compound, the arithmetic mean is reported.

human RXFP1 = biological target: T1, human RXFP1 (Homo sapiens, UniProt Q9HBX9); experiment: RXFP1 Hu cAMP (Test A); type: cell-based; set-up: expressed in transfected cells; host or cells: Jump-In T-REx CHO-K1 cells (ThermoFisher), induced with 10 ng/ml doxycycline for 24 h; settings: RXFP1 Hu cAMP; for EC50: read-out: Test A EC50
T1 sequence (Q9HBX9 1-757): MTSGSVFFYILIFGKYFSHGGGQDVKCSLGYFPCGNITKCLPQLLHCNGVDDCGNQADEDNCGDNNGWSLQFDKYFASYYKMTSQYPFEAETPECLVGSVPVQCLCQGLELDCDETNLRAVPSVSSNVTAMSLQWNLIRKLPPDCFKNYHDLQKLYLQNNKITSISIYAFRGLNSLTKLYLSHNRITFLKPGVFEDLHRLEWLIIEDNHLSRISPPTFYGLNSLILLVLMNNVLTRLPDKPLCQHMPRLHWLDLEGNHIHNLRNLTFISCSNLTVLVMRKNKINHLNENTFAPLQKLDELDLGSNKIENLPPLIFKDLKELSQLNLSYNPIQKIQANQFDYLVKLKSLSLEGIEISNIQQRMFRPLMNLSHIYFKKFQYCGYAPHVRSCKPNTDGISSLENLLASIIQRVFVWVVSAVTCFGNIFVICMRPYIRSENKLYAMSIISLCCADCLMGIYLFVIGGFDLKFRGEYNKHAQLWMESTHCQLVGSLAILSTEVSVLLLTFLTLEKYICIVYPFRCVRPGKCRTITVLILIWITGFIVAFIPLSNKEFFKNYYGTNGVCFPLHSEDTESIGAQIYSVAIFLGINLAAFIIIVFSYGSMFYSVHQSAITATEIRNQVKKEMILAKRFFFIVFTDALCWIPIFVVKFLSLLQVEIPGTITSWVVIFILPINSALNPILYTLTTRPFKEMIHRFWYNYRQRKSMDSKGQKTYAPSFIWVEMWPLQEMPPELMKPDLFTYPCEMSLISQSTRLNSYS
Summary of the method: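 Cells: CHO-K1 stably carrying human RXFP1, expressed after 24 h 10 ng/ml doxycycline; 0.5 mM IBMX final, HTRF detection after 2 h at room temperature.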

Row | solubility (Solubility (Test F)) [µM] | hepatocyte CLint [1] [µL/min/1e6 cells] | microsomal CLint [2] [µL/min/mg] | Test B Human Plasma Protein Binding (% free) [3] [% free] | Test A Sinf (human RXFP1) [%] | EC50 (human RXFP1) [nM] | Structure (SMILES)
1 | 960 (≈ 525 µg/mL) | 12 | 15 | 6.9 |  |  | COc1cc(F)c(O[C@H]2CC[C@@](C)(C(=O)O)CC2)cc1C(=O)N[C@@H]1[C@H]2CC[C@H](C2)[C@@H]1C(=O)N[C@@H](C)C(C)(C)C [Example 45]
2 | > 1000 | 12 | < 3 |  | 101 |  | COc1cc(F)c(O[C@H]2CC[C@@](C)(C(=O)O)CC2)cc1C(=O)N[C@@H]1CCC[C@@H]1C(=O)NCC(C)C [Example 66]
3 | > 1000 | 13 | 7.4 |  | 96 | 15000 | COc1cc(F)c(O[C@H]2CC[C@@](C)(C(=O)O)CC2)cc1C(=O)N[C@@H]1CCC[C@@H]1C(=O)N[C@@H](C)C(C)(C)C [Example 61]
4 | 39 (≈ 20.7 µg/mL) | 150 | 130 |  | 122 | 160 | COc1cc(F)c(O[C@H]2CC[C@@](C)(C(N)=O)CC2)cc1C(=O)N[C@@H]1[C@H]2CC[C@H](C2)[C@@H]1C(=O)NCC(C)(C)C [Example 53, (1R,2S,3R,4S)-3-(5-(((1s,4S)-4-Carbamoyl-4-methylcyclohexyl)oxy)-4-fluoro-2-methoxybenzamido)-N-neopentylbicyclo[2.2.1]heptane-2-carboxamide]
5 | 860 (≈ 468 µg/mL) |  |  | 3.7 |  |  | COc1cc(F)c(O[C@H]2CC[C@@](C)(C(=O)O)CC2)cc1C(=O)N[C@H]1[C@@H]2CC[C@@H](C2)[C@H]1C(=O)NCC1(C)CCC1 [Example 3, (1R,4s)-4-(2-Fluoro-4-methoxy-5-(((1R,2S,3R,4S)-3-(((1-methylcyclobutyl)methyl)carbamoyl)bicyclo[2.2.1]heptan-2-yl)carbamoyl)phenoxy)-1-methylcyclohexane-1-carboxylic acid]
6 | > 1000 | 11 | 4.9 |  | 99 | 660 | COc1cc(F)c(O[C@H]2CC[C@@](C)(C(=O)O)CC2)cc1C(=O)N[C@@H]1CCC[C@@H]1C(=O)NCC(C)(C)C [Example 57, (1S,4s)-4-(2-Fluoro-4-methoxy-5-(((1R,2S)-2-(neopentylcarbamoyl)cyclopentyl)carbamoyl)phenoxy)-1-methylcyclohexane-1-carboxylic acid]
7 | > 500 |  |  | 4.3 |  |  | COc1cc(F)c(O[C@H]2CC[C@@](C)(C(=O)O)CC2)cc1C(=O)N[C@@H]1[C@H]2CC[C@H](C2)[C@@H]1C(=O)NCC1(C)CCC1 [Example 1, (1S,4s)-4-(2-Fluoro-4-methoxy-5-(((1S,2R,3S,4R)-3-(((1-methylcyclobutyl)methyl)carbamoyl)bicyclo[2.2.1]heptan-2-yl)carbamoyl)phenoxy)-1-methylcyclohexane-1-carboxylic acid]
8 | > 1000 | 16 | < 3 |  | 100 | > 8400 | COc1cc(F)c(O[C@H]2CC[C@@](C)(C(=O)O)CC2)cc1C(=O)N[C@@H]1CCC[C@@H]1C(=O)N[C@@H](C)C(C)C [Example 55, (1S,4s)-4-(2-Fluoro-4-methoxy-5-(((1R,2S)-2-(((S)-3-methylbutan-2-yl)carbamoyl)cyclopentyl)carbamoyl)phenoxy)-1-methylcyclohexane-1-carboxylic acid]
9 | 250 (≈ 157 µg/mL) | 38 | 31 |  | 105 | 190 | COc1cc(F)c(O[C@H]2CC[C@@H](C(=O)O)CC2)cc1C(=O)N[C@@H]1[C@H]2CC[C@H](C2)[C@@H]1C(=O)Nc1cc(C(F)(F)F)ccc1Cl [Example 26]
10 | 240 (≈ 159 µg/mL) | 36 | 53 |  | 111 | 100 | COc1cc(F)c(-c2ccc(CCC(=O)O)cc2)cc1C(=O)N[C@@H]1[C@H]2CC[C@H](C2)[C@@H]1C(=O)Nc1cccc(S(=O)(=O)C(F)(F)F)c1 [Example 244]
